The values that follow come from patent US8952010B2, “Amino group-containing pyrrolidinone derivative” (Daiichi Sankyo Company, Limited, priority 2011, dated 2015).

In brackets after ≈: the same amount, converted by molar mass.

The subject of this assay is MRSA DB00026. Nature of the assay: Measurement of antibacterial activity (MIC), standard methods of the Japanese Society of Chemotherapy. In kind it is cell-based, methicillin-resistant Staphylococcus aureus. The conditions noted are these: Staphylococcus aureus; bacteria: MRSA DB00026. The protocol:
The measurement method of antibacterial activity of the compound of the present invention was carried out in accordance with the standard methods specified by the Japanese Society of Chemotherapy, and the results are shown in MIC (μg/mL) (Table 1).

`COc1ccc2ncc(=O)n(CCCCNC3CC(=O)N(c4ccc5c(c4)NC(=O)CO5)C3)c2c1` (stereo not shown) [Example 1, 6-(4-{[4-(7-Methoxy-2-oxoquinoxalin-1(2H)-yl)butyl]amino}-2-oxopyrrolidin-1-yl)-2H-1,4-benzoxazin-3(4H)-one]: the minimal inhibitory concentration (MIC) (in general, the lowest concentration that inhibits growth of the organism) was 0.12 mg/L (≈ 0.251 µM).

`COc1ccc2ncc(=O)n(CC(O)CNC[C@H]3CC(=O)N(c4ccc5c(n4)NC(=O)CO5)C3)c2n1` (stereo partly drawn) [Example 22, 6-[(4R)-4-({[2-Hydroxy-3-(6-methoxy-3-oxopyrido[2,3-b]pyrazin-4(3H)-yl)propyl]amino}methyl)-2-oxopyrrolidin-1-yl)-2H-pyrido[3,2-b][1,4]oxazin-3(4H)-one] had an MIC of 0.25 mg/L (≈ 0.505 µM). For the compound `COc1ccc2ncc(=O)n(CCCNC3CC(=O)N(c4ccc5c(c4)NC(=O)CO5)C3)c2c1` (stereo not shown) [Example 2, 6-(4-{[3-(7-Methoxy-2-oxoquinoxalin-1(2H)-yl)propyl]amino}-2-oxopyrrolidin-1-yl)-2H-1,4-benzoxazin-3(4H)-one], the MIC is at most 0.06 mg/L. Then `COc1ccc2ncc(=O)n(CCCCNC3CC(=O)N(c4ccc5c(c4)NC(=O)CO5)C3)c2n1` (stereo not shown) [Example 15, 6-Methoxy-4-(4-{[5-oxo-1-(3-oxo-3,4-dihydro-2H-1,4-benzoxazin-6-yl)pyrrolidin-3-yl]amino}butyl)pyrido[2,3-b]pyrazin-3(4H)-one], with at most 0.06 mg/L; and `COc1ccc2ncc(=O)n(CCNC[C@H]3CC(=O)N(c4ccc5c(c4)NC(=O)CO5)C3)c2c1` [Example 16, 6-[(4R)-4-({[2-(7-Methoxy-2-oxoquinoxalin-1(2H)-yl)ethyl]amino}methyl)-2-oxopyrrolidin-1-yl]-2H-1,4-benzoxazin-3(4H)-one], with at most 0.06 mg/L. In the case of `COc1ccc2ncc(=O)n(CC(F)CNC[C@H]3CC(=O)N(c4ccc5c(c4)NC(=O)CO5)C3)c2n1` (stereo partly shown) [Example 23] it was at most 0.06 mg/L; in that of `COc1ccc2ncc(=O)n(CCNC[C@H]3CC(=O)N(c4ccc5c(n4)NC(=O)CO5)C3)c2c1` [Example 19, 6-[(4R)-4-({[2-(7-Methoxy-2-oxoquinoxalin-1(2H)-yl)ethyl]amino}methyl)-2-oxopyrrolidin-1-yl]-2H-pyrido[3,2-b][1,4]oxazin-3(4H)-one], at most 0.06 mg/L.
